Data on two compounds can be found in patent US10596172B2 (Celgene CAR LLC, priority 2008, dated 2020).

In assay [1] the target is T1, BTK (Homo sapiens (Human), UniProt Q06187). The assay can be described thus: Human primary B cell covalent probe occupancy in vitro. As to conditions: human primary B cells, 1 h at 37° C. The assay is classed as cell-based. The protocol: All samples were prepared with equal concentrations of Biorad lysis buffer (Hercules, Calif., USA), 0.5% bovine serum albumin in PBS with 0.05% Tween-20 to give a final concentration of 1 μM I-215. Samples were incubated in a mixing plate for 1 hr at room temperature while shaking to allow probe compound I-215 to bind to free BTK. After incubation with I-215, samples were added to a washed, streptavidin-coated ELISA plate (Pierce, Rockford, Ill., USA) and incubated for 1 hr at room temperature while shaking. The plate was then washed with PBS containing 0.05% Tween-20 using an automatic plate washer. Anti-BTK antibody was prepared at 1:1000 dilution in 0.5% BSA in PBS (0.05% Tween-20) and added to the ELISA plate. The plate was incubated for 1 hr at room temperature while shaking. The plate was washed as described above and the secondary HRP antibody was prepared at 1:5000 dilution in 0.5% BSA in PBS (0.05% Tween-20). […] TMB was added to the plate, and OD650 was monitored until reaching 1 OD unit. […] The plate was analyzed using Gen 5 software, and a 4 Parameter Logistic curve was employed to quantitate samples. […]
T1 sequence (Q06187 whole entry): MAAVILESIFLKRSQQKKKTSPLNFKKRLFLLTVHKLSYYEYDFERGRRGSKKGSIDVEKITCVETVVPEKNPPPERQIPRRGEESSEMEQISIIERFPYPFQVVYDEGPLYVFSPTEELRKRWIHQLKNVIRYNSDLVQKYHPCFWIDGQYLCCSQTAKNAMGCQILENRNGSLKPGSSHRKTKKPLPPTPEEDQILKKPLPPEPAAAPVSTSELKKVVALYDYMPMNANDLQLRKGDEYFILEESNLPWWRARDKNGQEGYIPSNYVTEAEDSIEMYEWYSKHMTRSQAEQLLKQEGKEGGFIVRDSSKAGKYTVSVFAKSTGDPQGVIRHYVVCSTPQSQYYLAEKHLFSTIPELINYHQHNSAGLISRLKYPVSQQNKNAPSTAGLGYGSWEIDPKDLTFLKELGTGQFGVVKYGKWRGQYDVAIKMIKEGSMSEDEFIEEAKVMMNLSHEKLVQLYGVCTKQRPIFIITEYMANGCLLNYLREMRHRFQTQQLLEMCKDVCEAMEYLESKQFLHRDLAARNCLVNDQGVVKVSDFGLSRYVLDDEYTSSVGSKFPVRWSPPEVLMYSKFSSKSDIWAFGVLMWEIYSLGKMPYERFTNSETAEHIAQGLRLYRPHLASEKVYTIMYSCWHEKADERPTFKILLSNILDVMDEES
Human primary B cells were isolated as described in Example 256, then resuspended in RPMI media (10% serum). The compound to be analyzed was added at a 1:1000 dilution to media. […] The supernatant was analyzed as described in Example 283 using I-215.

The target in assay [2] is T1, BTK. Kind of assay: BTK occupancy from in vitro samples by ELISA (Ramos cells). The assay is classed as cell-based. As to the method: In order to determine the amount of free BTK in cell or tissue lysates, an ELISA protocol was employed that utilizes a biotinylated probe compound that binds only to free, unoccupied BTK. The conjugated biotin is captured on a streptavidin-coated ELISA plate and detected with a mouse anti-BTK antibody (Becton Dickinson, Franklin Lakes, N.J., USA) and a secondary goat anti-mouse HRP antibody (Zymed, South San Francisco, Calif., USA).
(§1) All samples were prepared with equal concentrations of Biorad lysis buffer (Hercules, Calif., USA), 0.5% bovine serum albumin in PBS with 0.05% Tween-20 to give a final concentration of 1 μM I-215. Samples were incubated in a mixing plate for 1 hr at room temperature while shaking to allow probe compound I-215 to bind to free BTK. After incubation with I-215, samples were added to a washed, streptavidin-coated ELISA plate (Pierce, Rockford, Ill., USA) and incubated for 1 hr at room temperature while shaking. The plate was then washed with PBS containing 0.05% Tween-20 using an automatic plate washer. Anti-BTK antibody was prepared at 1:1000 dilution in 0.5% BSA in PBS (0.05% Tween-20) and added to the ELISA plate. The plate was incubated for 1 hr at room temperature while shaking. The plate was washed as described above and the secondary HRP antibody was prepared at 1:5000 dilution in 0.5% BSA in PBS (0.05% Tween-20). The plate was incubated and washed as described above. TMB was added to the plate, and OD650 was monitored until reaching 1 OD unit. The reaction was then stopped with addition of H2SO4. The plate was analyzed using Gen 5 software, and a 4 Parameter Logistic curve was employed to quantitate samples. Recombinant BTK (Invitrogen, Carlsbad, Calif., USA) was used for the standard curve.
A concentration designated as “A” is greater than 1 nM; a concentration designated as “B” is greater than 10 nM; and a concentration designated as “C” is greater than 50 nM.
For orientation: ELISA stands for enzyme-linked immunosorbent assay.

For assay [3], the system named is Human naïve B cells. Kind of assay: Human primary B cell proliferation assay. As to conditions: 5 μg/ml α-IgM 72 hours, 3H-thymidine incorporation. The assay is classed as cell-based. As to the method: Human naïve B cells were purified from 100 mL whole blood using a MACS purification kit designed to isolate CD19+, IgD+ cells by negative selection. Purified naïve B cells were resuspended in RPMI complete and stimulated with 5 μg/ml α-IgM for 72 hours. ^3H-Thymidine was included in the culture media for the final 16 h, cells were harvested and ^3H incorporation measured. Inhibition of B cell proliferation correlates with inhibition of BTK substrate phosphorylation after α-IgM stimulation.

The test system of assay [4] is B cell lymphoma cell lines. The assay can be described thus: B cell lymphoma proliferation assay. The assay is classed as cell-based.
Assay [5] deals with BTK (Rattus norvegicus, UniProt Q5S255). The assay can be described thus: BTK occupancy from in vivo samples by ELISA. As to conditions: po, rats dosed orally 30 mg/kg. The protocol: as §1
Sequence of BTK (Rattus norvegicus, UniProt Q5S255) (Q5S255 1-660): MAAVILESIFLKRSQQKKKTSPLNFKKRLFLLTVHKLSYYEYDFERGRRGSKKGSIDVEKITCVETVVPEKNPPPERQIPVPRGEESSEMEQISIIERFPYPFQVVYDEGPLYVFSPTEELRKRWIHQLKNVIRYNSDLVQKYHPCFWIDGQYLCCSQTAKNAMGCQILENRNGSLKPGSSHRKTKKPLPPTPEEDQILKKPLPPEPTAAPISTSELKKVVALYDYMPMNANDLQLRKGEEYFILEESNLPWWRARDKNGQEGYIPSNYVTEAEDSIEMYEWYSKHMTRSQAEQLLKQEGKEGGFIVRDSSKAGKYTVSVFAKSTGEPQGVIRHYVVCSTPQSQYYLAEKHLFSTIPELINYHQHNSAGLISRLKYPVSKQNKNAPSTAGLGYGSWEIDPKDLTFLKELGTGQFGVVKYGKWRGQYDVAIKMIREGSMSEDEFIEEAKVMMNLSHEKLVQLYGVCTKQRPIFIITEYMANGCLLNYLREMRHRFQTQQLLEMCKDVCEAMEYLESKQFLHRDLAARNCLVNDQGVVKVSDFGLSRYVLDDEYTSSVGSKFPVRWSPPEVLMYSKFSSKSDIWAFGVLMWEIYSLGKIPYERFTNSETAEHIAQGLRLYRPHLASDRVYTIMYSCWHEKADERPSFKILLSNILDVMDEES
Rats were dosed orally with 30 mg/kg of compound and spleens were harvested either 2 or 24 hours after compound treatment. Rat spleens were disrupted between two microscope slides coated with frosted glass to recover single cell suspensions. Red blood cells were lysed by incubating with RBC lysis buffer (Boston BioProducts) for 2 minutes at room temperature, the cells were then resuspended in RPMI complete media and pelleted by centrifugation. Rat B cells were isolated by positive selection with B220+ antibody-magnetic bead conjugates, purified by MACS column and lysed in Bio-Rad lysis buffer at a concentration of 10 million cells/100 μl. Lysates were analyzed employing the biotinylated probe compound I-215 in an ELISA protocol as described in detail in Example 278.

In assay [6] the target is JAK3 (Homo sapiens (Human), UniProt P52333). The assay can be described thus: Omnia assay for potency assessment against the active form of JAK3. The assay is classed as biochemical. As to conditions: read-out: JAK3 Inhibition.
Sequence of JAK3 (P52333 whole entry): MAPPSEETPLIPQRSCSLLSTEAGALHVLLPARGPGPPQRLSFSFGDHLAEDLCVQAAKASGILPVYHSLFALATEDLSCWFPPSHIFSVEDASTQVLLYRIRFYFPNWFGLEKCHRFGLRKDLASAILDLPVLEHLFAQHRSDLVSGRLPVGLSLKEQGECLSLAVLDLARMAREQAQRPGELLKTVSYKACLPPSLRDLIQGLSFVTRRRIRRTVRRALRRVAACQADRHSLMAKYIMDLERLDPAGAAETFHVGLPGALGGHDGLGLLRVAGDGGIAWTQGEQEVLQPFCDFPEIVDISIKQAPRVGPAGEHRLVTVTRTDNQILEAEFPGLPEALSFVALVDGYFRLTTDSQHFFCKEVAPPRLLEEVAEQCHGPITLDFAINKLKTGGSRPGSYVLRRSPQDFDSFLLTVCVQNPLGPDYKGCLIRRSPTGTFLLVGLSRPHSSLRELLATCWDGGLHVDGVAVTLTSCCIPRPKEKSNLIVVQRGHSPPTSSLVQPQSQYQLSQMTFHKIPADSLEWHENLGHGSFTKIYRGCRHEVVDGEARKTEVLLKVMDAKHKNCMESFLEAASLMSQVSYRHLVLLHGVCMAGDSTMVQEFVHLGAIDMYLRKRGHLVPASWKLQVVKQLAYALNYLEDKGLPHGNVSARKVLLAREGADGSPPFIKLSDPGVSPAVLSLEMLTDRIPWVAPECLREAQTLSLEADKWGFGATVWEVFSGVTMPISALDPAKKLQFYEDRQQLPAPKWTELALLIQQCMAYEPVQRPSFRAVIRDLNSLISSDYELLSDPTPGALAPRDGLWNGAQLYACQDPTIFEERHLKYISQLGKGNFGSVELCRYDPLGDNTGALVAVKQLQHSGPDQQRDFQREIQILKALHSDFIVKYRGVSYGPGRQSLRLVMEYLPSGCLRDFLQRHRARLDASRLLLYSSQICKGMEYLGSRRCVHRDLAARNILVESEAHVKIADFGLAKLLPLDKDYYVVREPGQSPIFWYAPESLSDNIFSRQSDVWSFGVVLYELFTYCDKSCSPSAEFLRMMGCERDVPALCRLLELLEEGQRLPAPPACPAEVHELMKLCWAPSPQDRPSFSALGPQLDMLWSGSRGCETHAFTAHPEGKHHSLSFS
For assay [7], the target named is T1, BTK. The assay can be described thus: Mass spectrometry for BTK (covalent modification of intact protein). The assay is classed as binding. As to conditions: 1 hr, 10x fold excess of compound. As to the method:
Intact BTK was incubated for 1 hr at a 10× fold excess of I-7 to protein. Aliquots (2 μl) of the samples were diluted with 10 μl of 0.1% TFA prior to micro C4 ZipTipping directly onto the MALDI target using Sinapinic acid as the desorption matrix (10 mg/ml in 0.1% TFA:Acetonitrile 20:80).

For assay [8], the target named is BTK (Canis lupus familiaris, UniProt A0A8I3P3Z9). The assay can be described thus: Dog primary B cell covalent probe occupancy in vitro. The assay is classed as cell-based. As to conditions: canine PBMCs, one hour at 37° C. The protocol:
All samples were prepared with equal concentrations of Biorad lysis buffer (Hercules, Calif., USA), 0.5% bovine serum albumin in PBS with 0.05% Tween-20 to give a final concentration of 1 μM I-215. Samples were incubated in a mixing plate for 1 hr at room temperature while shaking to allow probe compound I-215 to bind to free BTK. After incubation with I-215, samples were added to a washed, streptavidin-coated ELISA plate (Pierce, Rockford, Ill., USA) and incubated for 1 hr at room temperature while shaking. The plate was then washed with PBS containing 0.05% Tween-20 using an automatic plate washer. Anti-BTK antibody was prepared at 1:1000 dilution in 0.5% BSA in PBS (0.05% Tween-20) and added to the ELISA plate. The plate was incubated for 1 hr at room temperature while shaking. The plate was washed as described above and the secondary HRP antibody was prepared at 1:5000 dilution in 0.5% BSA in PBS (0.05% Tween-20). The plate was incubated and washed as described above. TMB was added to the plate, and OD650 was monitored until reaching 1 OD unit. […] The plate was analyzed using Gen 5 software, and a 4 Parameter Logistic curve was employed to quantitate samples. […]
Canine whole blood (30 mL) was diluted to 50 mL total with 1×PBS and layered on top of Histopaque-1077 (Sigma Aldrich). […] The supernatant was analyzed as described in Example 283 using I-215. […]

Setting [9] is: Homo sapiens, DOHH-2, DOHH2 B cell lymphoma cell line, read-out: EC50 (μM) DOHH2.
Setting [10] is: Homo sapiens, WSUDLCL2, WSU-DLCL2 B cell lymphoma cell line, read-out: EC50 (μM) WSU-DLCL2.
The mark [11] stands for this setting: spleen B cells harvested 2 hours after treatment, read-out: % BTK Occupancy 2 h.
[12] abbreviates: spleen B cells harvested 24 hours after treatment, read-out: % BTK Occupancy 24 h.

Where two headings read alike, the source gives them in different places.

Sequence of BTK (Canis lupus familiaris, UniProt A0A8I3P3Z9) (A0A8I3P3Z9 1-664): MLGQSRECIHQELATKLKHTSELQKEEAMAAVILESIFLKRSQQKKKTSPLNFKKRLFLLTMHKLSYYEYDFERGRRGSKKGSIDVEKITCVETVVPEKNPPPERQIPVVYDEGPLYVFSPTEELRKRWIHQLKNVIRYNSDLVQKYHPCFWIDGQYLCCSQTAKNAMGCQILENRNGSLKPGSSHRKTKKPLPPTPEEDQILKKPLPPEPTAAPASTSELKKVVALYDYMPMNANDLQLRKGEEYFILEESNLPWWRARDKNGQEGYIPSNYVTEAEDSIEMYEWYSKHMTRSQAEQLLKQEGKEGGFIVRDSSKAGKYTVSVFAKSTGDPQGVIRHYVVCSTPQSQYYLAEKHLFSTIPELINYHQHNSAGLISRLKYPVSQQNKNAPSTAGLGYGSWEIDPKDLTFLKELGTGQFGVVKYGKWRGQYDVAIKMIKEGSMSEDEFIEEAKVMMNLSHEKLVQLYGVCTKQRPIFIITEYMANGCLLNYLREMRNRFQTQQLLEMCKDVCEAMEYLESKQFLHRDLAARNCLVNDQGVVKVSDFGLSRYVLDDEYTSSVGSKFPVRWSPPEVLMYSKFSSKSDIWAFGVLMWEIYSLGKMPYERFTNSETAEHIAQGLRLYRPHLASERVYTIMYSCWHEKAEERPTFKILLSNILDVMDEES

For `C=CC(=O)Nc1cccc(Nc2nc(Nc3ccc(OCCOC)c(F)c3)ncc2F)c1` [Compound I-96, N-(3-(2-(3-fluoro-4-(2-methoxyethoxy)phenylamino)-5-fluoropyrimidin-4-ylamino)phenyl)acrylamide], the “concentration at which at least 50% of BTK is occupied” value in assay [1] and in assay [8] was “greater than 10 nM” throughout. In addition, in assay [2], the “>50% occupancy (concentration at which >50% of BTK is occupied)” value is on record as “A (greater than 1 nM)”. For the same compound, in assay [2], the “>90% occupancy (concentration at which >90% of BTK is occupied)” value is “B (greater than 10 nM)”. The figures for the EC50 in assay [3], in assay [4] (setting [9]) and in assay [4] (setting [10]) were 0.001 to 0.01 µM, 0.1 to 1 µM and 1 to 10 µM, respectively. The receptor occupancy at 30 mg/kg in assay [5] (setting [11]) was 87%; in assay [5] (setting [12]), 60%. Also, the IC50 in assay [6] is under 0.01 µM. In addition, the “covalent modification of BTK by mass spectrometry” value in assay [7] is reported as “completely modify”.
`C=CC(=O)Nc1cccc(Nc2nc(Nc3ccc(OCCOC)cc3)ncc2F)c1` [Compound I-182, N-(3-(5-fluoro-2-(4-(2-methoxyethoxy)phenylamino)pyrimidin-4-ylamino)phenyl)acrylamide]: the “concentration at which at least 50% of BTK is occupied” value in assay [1] is given as “greater than 10 nM”. In addition, the “>50% occupancy (concentration at which >50% of BTK is occupied)” value in assay [2] is “A (greater than 1 nM)”. Besides, the “>90% occupancy (concentration at which >90% of BTK is occupied)” value in assay [2] was “C (greater than 50 nM)”. The 50% effective concentration (EC50) in assay [3] lay within 0.001 to 0.01 µM; in assay [4] (DHL4 B cell lymphoma cell line, read-out: EC50 (μM) DHL4), 1 to 10 µM; in assay [4] (setting [9]) it was 1 to 10 µM; in assay [4] (setting [10]), 1 to 10 µM. Moreover, the receptor occupancy at 30 mg/kg in assay [5] (setting [11]) stood at 99%; in assay [5] (setting [12]) it was 79%. For the same compound, the IC50 in assay [6] is under 0.01 µM. The “covalent modification of BTK by mass spectrometry” value in assay [7] was “completely modify”.

As a reminder, the EC50 is the concentration needed to bring the measured effect to its halfway point.
